For experiment [1], the system named is rat carotid artery thrombosis. Nature of the experiment: Rat carotid artery thrombosis model (FeCl3 injury), Example 3. The class given is in vivo. From the text: In order to evaluate the efficacy of anti-Factor IX antibodies in prevention of arterial thrombosis, the rat carotid artery thrombosis model as reported by Schumacher et al. in J. Cardio. Pharm. 22, 526-533 (1993) was adapted. This model consists of segmental injury to the carotid endothelium by oxygen radicals generated by FeCl3 solution applied on the surface of the carotid artery.
In brief, rats were anesthetized with pentobarbitone sodium, the jugular vein cannulated for intravenous injections and the left femoral artery cannulated for blood pressure and heart rate monitoring. The carotid artery was isolated by aseptic technique via a surgical incision in the neck and equipped with a magnetic flow probe for blood flow measurement. After a period of stabilization, baseline parameters were established for the following variables: carotid blood flow, arterial pressure, heart rate, activated partial thromboplastin time (aPTT) and prothrombin time (PT). Thereafter, a premeasured Whatman filter paper soaked in 50% FeCl3 solution was placed on the carotid artery for 15 minutes for complete injury of the underlying endothelial cells. After removal of the FeCl3 soaked paper, the experiment was followed to completion over 60 minutes. At the end of the experiment, the carotid thrombus was extracted from the carotid artery and weighed.
All agents were administered 15 minutes prior to the onset of carotid injury. The following treatments were examined and compared to the Factor IX mAb BC2.
1. Heparin: 15, 30, 60 or 120 U/kg bolus, followed by infusion of 0.5, 1, 2 or 4 U/kg/min, respectively over 60 minutes
2. Acetylsalicylic acid (ASA, aspirin): 5 mg/kg bolus
3. Anti-Factor IX mAb BC2: 1, 3 or 6 mg/kg bolus, followed by infusion 0.3, 1, or 2 ug/kg/min, respectively over 60 minutes
4. Heparin: 30U/kg bolus+lU/kg/min+ASA at 5 mg/kg
5. Anti-Factor IX mAb BC2: 1 mg/kg+0.3 ug/kg/min+ASA at 5 mg/kg

The test system of another experiment is BC2 antibody. Briefly: BiaCore binding of Factor IX/Factor VII constructs to immobilized BC2. To be noted: for Degree of Binding to BC2: 200 nM construct, 25 mM MOPS pH 7.4, 0.15 M NaCl, 5 mM CaCl2. The protocol: A library of chimeric constructs composed of sequences of Factor IX spliced into the framework of the homologous protein Factor VII was constructed and used to map the epitope for the Factor IX BC2 mAb. See Cheung et al., Thromb. Res. 80, 419-427 (1995). Binding was measured using a BiaCore 2000 surface plasmon resonance device. The BC2 antibody was coupled directly to the chip using the NHS/EDC reaction. Binding was measured by 2 min of contact time at 20 uL/min with 200 nM of each of the given constructs in 25 mM MOPS, pH 7.4, 0.15 M NaCl, 5 mM CaCl2. Dissociation was monitored for 3 min using the same buffer with no protein. No binding was detected to the wild type construct in the presence of 50 mM EDTA.
A general note: In SPR one partner is held on a chip, and binding of the other changes the refractive index at the surface.

Ten molecules from patent US20020146411A1, “Anticoagulant agents useful in treatment of thrombosis” (SmithKline Beecham Corporation, priority 1996, published 2002) can be followed below.

“Also recorded” adds a separate entry of the source.

Take `CC(=O)Oc1ccccc1C(=O)O` [ASA, Acetylsalicylic acid, reference compound]: in experiment [1], the “effect on carotid artery occlusion (FIG. 6)” value is recorded as “only a minor effect” and the “effect on thrombus weight (FIG. 7)” value is recorded as “only a partial effect”. Besides, the “effect on aPTT at 60 minutes (FIG. 4)” value in experiment [1] (regimens of b146-b150, given 15 minutes before injury) is “did not significantly increase aPTT”. Take “IX K5A: Factor IX having a lysine to alanine substitution at residue 5”: in the experiment with BC2 antibody, the “Degree of Binding to BC2” value is given as “exhibit binding to BC2; also recorded: Binds”.

Turning to “Plasma IXa: plasma Factor IXa, wild type Factor IX”, in the experiment with BC2 antibody, the “Degree of Binding to BC2” value is listed as “Binds”. In the case of Plasma VII: plasma Factor VII, in the experiment on BC2 antibody, the “Degree of Binding to BC2” value is “No Binding”. The same measure, in the same setting: the entry for “VII gla (IX 3-6)/IX: chimeric Factor VII/Factor IX construct” is “Very Low Binding”; for “VII gla (IX 3-11)/IX: residues 3-11 of Factor IX gla domain within the Factor VII gla domain” it is “exhibit binding to BC2; also recorded: equivalent to wild type Factor IX; also recorded: Binds”. On the same count and under the same terms, to “VII gla (IX 9-11)/IX: chimeric Factor VII/Factor IX construct” belongs “Very Low Binding”; to “VII gla/IX: chimeric Factor VII/Factor IX construct”, “No Binding”.

In the case of r-IX: recombinant wild type Factor IX, the “Degree of Binding to BC2” value in the experiment with BC2 antibody was “Binds”. With “wild type construct: wild type Factor IX construct used in BC2 epitope mapping”, the “binding to BC2 in the presence of EDTA” value in the experiment with BC2 antibody (50 mM EDTA) is given as “No binding”.
